Read-outs that look alike come from different tables or passages of the source.
How the values were obtained:
[1] = tested on: HepG2; set-up: method as in Jo SP, Kim JK, Lim YH. Planta Med. 2014 Aug;80(13):1067-71; conditions: HepG2 cancer cell line; ref Jo SP, Kim JK, Lim YH. Planta Med. 2014 Aug;80(13):1067-71; read-out: IC50, proliferation of HepG2; cited from earlier work
[2] = tested on: HL-60R; set-up: method as in Jo SP, Kim JK, Lim YH. Planta Med. 2014 Aug;80(13):1067-71; conditions: HL-60R cancer cell line; ref Jo SP, Kim JK, Lim YH. Planta Med. 2014 Aug;80(13):1067-71; read-out: IC50, proliferation of HL-60R; cited from earlier work
[3] = tested on: cytochrome P450 1A1; set-up: method as in Jo SP, Kim JK, Lim YH. Planta Med. 2014 Aug;80(13):1067-71; conditions: mechanism-based, selective inactivator; ref Jo SP, Kim JK, Lim YH. Planta Med. 2014 Aug;80(13):1067-71; read-out: IC50, cytochrome P450 1A1 inactivation; cited from earlier work
[4] = tested on: fatty acid synthase; set-up: method as in Tian, WX. Current Medicinal Chemistry, 2006, 13 (8): 967–977; conditions: ref Tian, WX. Current Medicinal Chemistry, 2006, 13 (8): 967–977; cited from earlier work
[5] = tested on: nuclear factor of activated T cells (NFAT) transcription factor; set-up: method as in Phan, C., et al. Biofactors, 2016; conditions: vendor library annotation, ref Phan, C., et al. Biofactors, 2016; cited from earlier work
[6] = tested on: seed germination; set-up: method as in Kim T K, Park K S. Cytokine, 2015, 76(2); conditions: at 3 mM concentration; ref Kim T K, Park K S. Cytokine, 2015, 76(2); cited from earlier work
[7] = tested on: GX_P2V; experiment: microbe, parasite or virus in culture; type: cell-based, Pangolin coronavirus
[8] = in vitro; conditions: African green monkey
[9] = tested on: prolyl oligopeptidase (POP); set-up: method as in ref Zhou XQ et al., Flavonoids from Scutellaria baicalensis and their bioactivities; conditions: concentration of 100 microM; ref Zhou XQ et al., Flavonoids from Scutellaria baicalensis and their bioactivities; cited from earlier work
[10] = tested on: human tumor cell line panel; set-up: method as in Huang Y et al., Journal of Natural Products, 1998; conditions: library annotation, ref Huang Y et al., Journal of Natural Products, 1998; cited from earlier work
[11] = tested on: human adenovirus type 3 (HAdV-3); set-up: method as in Li M, et al. Neurosci Lett. 2016; conditions: HAdV-3 in A549 cells; vendor library annotation; ref Li M, et al. Neurosci Lett. 2016; cited from earlier work
[12] = tested on: A549 cells; set-up: method as in Li M, et al. Neurosci Lett. 2016; conditions: vendor library annotation, ref Li M, et al. Neurosci Lett. 2016, read-out: LC50 (the source's name); cited from earlier work
[13] = tested on: cyclin-dependent kinases; conditions: read-out: IC50, cyclin-dependent kinases; ref Hoessel R, et al. Nat Cell Biol, 1999, 1(1), 60-67; cited from earlier work
[14] = tested on: GSK-3β; conditions: read-out: IC50, GSK-3β; ref Hoessel R, et al. Nat Cell Biol, 1999, 1(1), 60-67; cited from earlier work
[15] = tested on: GX_P2V NP protein; type: cell-based, Pangolin coronavirus
[16] = tested on: GX_P2V; type: cell-based, Pangolin coronavirus
[17] = Cytotoxicity, CellTiter-Blue Cell Viability Assay; conditions: African green monkey, Vero E6 cells
[18] = tested on: STAT5; set-up: method as in Shin DS, et al. Cancer Res, 2009, 69(1), 193-202; conditions: ref Shin DS, et al. Cancer Res, 2009, 69(1), 193-202; cited from earlier work
[19] = tested on: STAT1; set-up: method as in Shin DS, et al. Cancer Res, 2009, 69(1), 193-202; conditions: ref Shin DS, et al. Cancer Res, 2009, 69(1), 193-202; cited from earlier work
[20] = tested on: STAT3; set-up: method as in Shin DS, et al. Cancer Res, 2009, 69(1), 193-202; conditions: cell-free assay; ref Shin DS, et al. Cancer Res, 2009, 69(1), 193-202; cited from earlier work
[21] = molecular target: lipase; set-up: method as in Tao J, et al. Zhongguo Zhong Yao Za Zhi. 2011; conditions: vendor library annotation, ref Tao J, et al. Zhongguo Zhong Yao Za Zhi. 2011, read-out: IC5 (lipase inhibitory activity); cited from earlier work
[22] = tested on: T. castaneum adults; set-up: method as in Tao J, et al. Zhongguo Zhong Yao Za Zhi. 2011; conditions: vendor library annotation, ref Tao J, et al. Zhongguo Zhong Yao Za Zhi. 2011; cited from earlier work
[23] = tested on: T. castaneum adults; set-up: method as in Tao J, et al. Zhongguo Zhong Yao Za Zhi. 2011; conditions: 0.63 μg/cm, vendor library annotation, ref Tao J, et al. Zhongguo Zhong Yao Za Zhi. 2011; cited from earlier work
[24] = molecular target: yeast-α-glucosidase; set-up: method as in ref Saw C L L et al., Biopharmaceutics & Drug Disposition, 2014, 34(6):303-311; conditions: ref Saw C L L et al., Biopharmaceutics & Drug Disposition, 2014, 34(6):303-311, cited from earlier work
[25] = tested on: Vero E6 cells; experiment: Cytotoxicity, CellTiter-Blue Cell Viability Assay; conditions: Vero E6 cells, CellTiter-Blue
[26] = tested on: SARS-CoV-2 isolate WIV04; experiment: Anti-SARS-CoV-2 activity in vitro, viral yield in Vero E6 supernatant by qRT-PCR; type: cell-based, Severe acute respiratory syndrome coronavirus 2
From the text: To verify the drugs screened through the GX_P2V drug screening alternative model, we repeatedly tested the antiviral activity of the above drugs on SARS-CoV-2. In brief, Vero E6 cells were pre-seeded in 48-well plates at a density of 5×10^4 cells/well and continued to be cultured overnight. Two hours before infection, the culture supernatant of Vero E6 cells was discarded and replaced with a DMEM medium containing different concentration gradient drugs. Vero E6 cells were continued to be cultured for 2 hours, which was conducive to the early entry of the drugs into the cells. Vero E6 cells were infected with WIV04 at a MOI=0.01 for 1 h. After discarding the supernatant, the cells were washed twice with DMEM, and the medium was changed to a DMEM medium (10%FBS) containing the corresponding concentration of the drug. After 24 h.p.i, the cell supernatant was collected. According to the manufacturer’s instructions, the viral RNA was extract using Magnetic Bead Virus RNA Extraction Kits (Shanghai Fine Gene Biotech, FG438). The viral yield in the cell supernatant was then quantified by qRT-PCR using HiSxript II One step qRT-PCR SYBRGreen Kit (Vazyme, Nanjing, China).

[27] = tested on: B16F10 cell; set-up: method as in ref Abe F, Nagao T, Okabe H. Biological & Pharmaceutical Bulletin, 2002, 25(7):920-922; conditions: ref Abe F, Nagao T, Okabe H. Biological & Pharmaceutical Bulletin, 2002, 25(7):920-922, read-out: GI50 against B16F10 cell; cited from earlier work
[28] = Pangolin coronavirus, Vero C1008, 72 h

Compound: Rhapontigenin
- IC50 [1]: 48 µM
- IC50 [2]: 48 µM
- IC50 [3]: 0.4 µM

Compound: O=c1c(O)c(-c2ccc(O)cc2O)oc2cc(O)cc(O)c12 [Morin]
- IC50 [4]: 2.33 µM

Compound: COc1cc2oc(-c3ccccc3)cc(=O)c2c(O)c1O [Negletein]
- IC50 [5]: 3.89 µM

Compound: C[C@]1(OC(=O)/C=C/c2ccccc2)C[C@@H](O)[C@]2(O)C=CO[C@@H](O[C@@H]3O[C@H](CO)[C@@H](O)[C@H](O)[C@H]3O)[C@@H]21 [Harpagoside]
- inhibition of seed germination [6]: 1. Harpagoside has anti-inflammatory activity. 2. Harpagoside at 3 mM concentration, shows moderate inhibition of seed germination. 3. Harpagoside can inhibit lipopolysaccharide-induced mRNA levels and protein expression of cyclooxygenase-2 and inducible nitric oxide in HepG2 cells.

Compound: CCN(CC)CCCC(C)Nc1ccnc2cc(Cl)ccc12 (stereo not drawn) [chloroquine]
- SI [7]: > 3.92
- EC50 [7, 28]: 12.8 µM
- CC50 [8]: > 50 µM

Compound: COc1c(O)cc2oc(-c3ccc(O)cc3)cc(=O)c2c1O [4', 5,7-trihydroxy-6-methoxyflavone]
- inhibition of total prolyl oligopeptidase (POP) activity [9]: 43%

Compound: CC(C)C1=CC(=O)[C@](C)([C@H]2[C@H](O)C[C@@]3(C)[C@@H]4CC=C5[C@@H](CC[C@@H](O[C@@H]6OC[C@@H](O)[C@H](O)[C@H]6O[C@@H]6O[C@@H](C)[C@H](O)[C@@H](O)[C@H]6O)C5(C)C)[C@]4(C)C(=O)C[C@]23C)O1 [Picfeltarraenin IA]
- cytotoxic activity in vitro [10]: 1. Picfeltarraenin IB and Picfeltarraenin IA displayes no cytotoxic activity in vitro human tumor cell line panel.

Compound: CC(C)(O)[C@@H]1CC[C@](C)([C@H]2[C@@H](O)C[C@@]3(C)[C@@H]4C[C@H](O[C@@H]5O[C@H](CO)[C@@H](O)[C@H](O)[C@H]5O)[C@H]5C(C)(C)[C@@H](O[C@@H]6OC[C@@H](O)[C@H](O)[C@H]6O)CC[C@@]56C[C@@]46CC[C@]23C)O1 [Astragaloside IV]
- IC50 [11]: 23 µM
- CC50 [12]: 865 µM

Compound: O=C1Nc2ccccc2/C1=C1/Nc2ccccc2C1=O [Indirubin]
- IC50 [13]: ~5 µM
- IC50 [14]: ~0.6 µM

Compound: CO[C@H]1O[C@@H]2O[C@@]3(C)CC[C@H]4[C@H](C)CC[C@@H]([C@H]1C)[C@@]24OO3 [artemether, reference compound]
- expression of viral NP protein [15]: almost completely inhibited
- EC50 [7, 28]: 3.7 µM
- stage of action in time-of-addition assay [16]: functioned on both entry and post-entry stages
- CC50 [17]: > 200 µM

Compound: C[C@H]1COC2=C1C(=O)C(=O)c1c2ccc2c1CCCC2(C)C [Cryptotanshinone]
- inhibition of STAT5 [18]: no inhibition
- inhibition of STAT1 [19]: no inhibition
- IC50 [20]: 4.6 µM

Compound: C/C=C/C#CC#C/C=C/c1ccco1 [Atractylodin]
- IC50 [21]: 39.1 µM
- LD50 [22]: 1.83 µg/cm
- repellency [23]: > 90%

Compound: COc1c(O[C@@H]2O[C@H](C(=O)O)[C@@H](O)[C@H](O)[C@H]2O)cc2oc(-c3ccccc3)cc(=O)c2c1O [Oroxylin A 7-O-beta-D-glucuronide]
- inhibition of total prolyl oligopeptidase (POP) activity [9]: 34%

Compound: CCC/C=C1/OC(=O)c2ccccc21 [n-Butylidenephthalide]
- Ki ([24]; noncompetitive fashion, read-out: K(i), yeast-α-glucosidase): 4860 µM
- IC50 ([24]; noncompetitive, read-out: IC(5), inhibition of yeast-α-glucosidase activity): 2350 µM

Compound: COc1c(/C=C/C(=O)c2ccc(O)cc2)ccc(O)c1O [licochalcone B, Licochalcone B]
- expression of viral NP protein [15]: most viral NP proteins can be inhibited
- SI [7]: 4.28
- EC50 ([7]; read-out: EC50): 24.9 µM
- CC50 [25]: 106 µM
- SI ([26]; CC50/EC50, SARS-CoV-2 WIV04 in Vero E6): 6.86
- EC50 ([26]; SARS-CoV-2 WIV04 MOI 0.01, Vero E6, 24 h.p.i., supernatant qRT-PCR): 15.5 µM

Compound: C[C@@H]1OC(O[C@@H]2[C@@H](O)[C@H](OCCc3ccc(O)c(O)c3)O[C@H](CO[C@@H]3OC[C@@H](O)[C@H](O)[C@H]3O)[C@H]2OC(=O)/C=C/c2ccc(O)c(O)c2)[C@H](O)[C@H](O)[C@H]1O (stereo partly drawn) [Arenarioside]
- GI50 [27]: 10 to 16 µM

Compound: CC(C)C1=CC(=O)[C@@](C)([C@H]2[C@H](O)C[C@@]3(C)[C@@H]4CC=C5[C@@H](CC[C@@H](O[C@@H]6O[C@H](CO)[C@@H](O)[C@H](O)[C@H]6O[C@@H]6O[C@@H](C)[C@H](O)[C@@H](O)[C@H]6O)C5(C)C)[C@]4(C)C(=O)C[C@]23C)O1 [Picfeltarraenin IB]
- cytotoxic activity in vitro [10]: 1. Picfeltarraenin IB and Picfeltarraenin IA displayes no cytotoxic activity in vitro human tumor cell line panel.

From PMC8435859 (Frontiers in Cellular and Infection Microbiology, 2021)
